Experimental findings from patent EP0018189B1 (priority 1979, dated 1980) are described below.

The test system of assay [1] is poliomyelitis vaccines (Types 1, 2 and 3): Type 3. The format is in vivo. The following applies: guinea pigs.
Assay [2] has as its system poliomyelitis vaccines (Types 1, 2 and 3): Type 1. Also noted: species or system guinea pigs. The following applies: guinea pig, in vivo.
Assay [3] relates to poliomyelitis vaccines (Types 1, 2 and 3): Type 2. The format is in vivo. To be noted: guinea pigs.
[4] abbreviates: undiluted, 1/10 and 1/100 dilutions, determined by comparison of ED50.

With `CCCCCCCCCCCCCCCCCCOC(=O)[C@@H](N)Cc1ccc(O)cc1` [octadecyl tyrosine], in assay [1], the “factor more potent than the vaccine containing aluminum phosphate, type 3” value stood at 1.4. Further, the “Potency Relative to Unadsorbed Vaccine, Type 3” value in assay [1] (setting [4]) amounted to 8.5. In addition, in assay [2], the “Potency Relative to Unadsorbed Vaccine, Type 1” value is 13.8 and the “factor more potent than the vaccine containing aluminum phosphate, type 1” value was determined as 5.2. Further, the “factor more potent than the vaccine containing aluminum phosphate, type 2” value in assay [3] came out at 1.9. In addition, in assay [3] (setting [4]), the “Potency Relative to Unadsorbed Vaccine, Type 2” value came out at 3.2.
